Experimental data taken from US20110201564A1, “SUBSTITUTED 7-SULFANYLMETHYL, 7-SULFINYLMETHYL AND 7-SULFONYLMETHYL INDOLES AND USE THEREOF” (BAYER SCHERING PHARMA AKTIENGESELLSCHAFT, priority 2008, published 2011).

Key:
CYP3A4 = molecular target: T1, CYP3A4 (Homo sapiens, UniProt P08684); experiment: Assay to assess irreversible CYP3A4 inhibition (mechanism-based inhibition) in human liver microsomes; assay type: in vitro ADME; settings: CYP3A4 activity as 6β-hydroxytestosterone formation, 2-20 μM
T1 construct: using human liver microsomes (pool from various individuals); from tissue; host or cells: human liver microsomes (pool from various individuals)
Description: 8. Assay to Assess Irreversible CYP3A4 Inhibition
Cytochrom P450 enzyme inhibition, especially irreversible enzyme inhibition, also referred to as mechanism-based inhibition (MBI), is an unwanted metabolic property of a substance which may, on concurrent administration of other medicaments, lead to considerable drug interactions. Criteria for the presence of an irreversible inhibition are a time-, concentration- and cofactor- (nicotinamide adenine dinucleotide phosphate, NADPH) dependent inhibition. To this end, the compounds of the invention are incubated in vitro with human liver microsomes, the influence on the CYP3A4 activity and the metabolic degradation of the novel active ingredient is determined, and the prototypical parameters kinact, Ki and the partition ratio r are ascertained therefrom.
The compounds of the invention are incubated with concentrations of 2-20 μM. To this end, stock solutions of the active ingredients with a concentration of 0.2-2 mM are prepared in acetonitrile and then pipetted with a 1:100 dilution into the incubation mixture. The liver microsomes are incubated in 50 mM potassium phosphate buffer (pH 7.4) with and without NADPH-generating system consisting of 1 mM NADP^+, 5 mM glucose 6-phosphate and 1 unit of glucose 6-phosphate dehydrogenase, at 37° C. After defined preincubation times of 0-50 min, aliquots are removed from these mixtures, diluted 1:25 in a new incubation, and incubated in the presence of testosterone and new NADPH-generating system again for 20 min. These incubation mixtures are stopped with acetonitrile (final concentration about 30% v/v), and the protein is removed by centrifugation at about 15 000×g. The samples stopped in this way are either analyzed directly or stored at −20° C. until analyzed.
The analysis takes place by high performance liquid chromatography with mass spectrometry detection (LC-MS). The formation of 6β-hydroxytestosterone as measure of CYP3A4 activity, and the test substance still remaining is quantified. The parameters kinact, Ki and the partition ratio r are determined therefrom so as to assess the novel active ingredients in relation to MBI.

[1] = molecular target: T2, progesterone receptor (PR) (Homo sapiens, UniProt P06401); experiment: Cellular in vitro assay, GAL4-PR chimera luciferase reporter in CHO K1 cells (selectivity); assay type: cell-based; settings: antagonism vs progesterone; CHO K1 GAL4-PR LBD luciferase reporter
T2 construct: of the progesterone receptor (PR, amino acids 680-933); expressed in transfected cells; host or cells: CHO K1
T2 sequence (P06401 680-933): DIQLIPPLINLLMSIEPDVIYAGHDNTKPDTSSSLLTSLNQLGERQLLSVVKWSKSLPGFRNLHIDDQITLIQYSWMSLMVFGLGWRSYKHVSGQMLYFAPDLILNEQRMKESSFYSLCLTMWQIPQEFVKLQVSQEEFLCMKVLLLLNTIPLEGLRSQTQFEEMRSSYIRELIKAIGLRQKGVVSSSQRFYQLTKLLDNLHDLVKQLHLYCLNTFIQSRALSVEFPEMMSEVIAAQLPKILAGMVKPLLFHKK
Outline: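 CHO K1 cells stably expressing GAL4 DNA-binding domain fused to human MR, PR or AR ligand-binding domains plus GAL4-driven firefly luciferase; compounds added 10–30 min before agonist (aldosterone, progesterone or dihydrotestosterone), luciferase read after 5–6 h; IC50 from sigmoidal concentration–response curves.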

T1 sequence (P08684 whole entry): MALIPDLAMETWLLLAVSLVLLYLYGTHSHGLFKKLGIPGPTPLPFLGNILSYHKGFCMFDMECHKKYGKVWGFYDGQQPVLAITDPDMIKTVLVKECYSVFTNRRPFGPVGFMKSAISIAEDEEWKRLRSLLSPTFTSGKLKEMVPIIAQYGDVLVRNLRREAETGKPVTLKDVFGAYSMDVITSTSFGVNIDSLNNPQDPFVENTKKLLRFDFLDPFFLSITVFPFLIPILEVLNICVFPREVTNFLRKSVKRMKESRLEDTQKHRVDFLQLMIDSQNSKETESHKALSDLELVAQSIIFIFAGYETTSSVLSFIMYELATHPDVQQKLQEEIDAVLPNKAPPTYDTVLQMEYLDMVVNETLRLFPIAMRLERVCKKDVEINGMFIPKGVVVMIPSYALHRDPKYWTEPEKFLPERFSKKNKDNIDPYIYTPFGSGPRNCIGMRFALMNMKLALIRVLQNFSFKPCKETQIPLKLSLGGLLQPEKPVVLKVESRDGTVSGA

Partition ratio r (CYP3A4) | IC50 [1] [µM] | Compound
90 | 1.42 | CCC(CCO)(c1ccc(Cl)cc1)c1c[nH]c2c(CS(C)(=O)=O)cccc12 (centres unmarked) [Example 147, 3-(4-Chlorophenyl)-3-{7-[(methylsulfonyl)methyl]-1H-indol-3-yl}pentan-1-ol]
>200 | 10 | CS(=O)(=O)Cc1cc(F)cc2c(C(c3ccc(C(F)(F)F)cc3F)C3CC3C#N)c[nH]c12 (single isomer, unassigned) [Example 271-1-1, 2-({5-Fluoro-7-[(methylsulfonyl)methyl]-1H-indol-3-yl}[2-fluoro-4-(trifluoro-methyl)phenyl]methyl)cyclopropanecarbonitrile]
>200 | 12.3 | CS(=O)(=O)Cc1cccc2c(C(c3ccc(Cl)cc3)C3CC3(F)F)c[nH]c12 (single isomer, unassigned) [Example 261-1, 3-[(4-Chlorophenyl)(2,2-difluorocyclopropyl)methyl]-7-[(methylsulfonyl)methyl]-1H-indole]
>500 | 7.24 | CS(=O)(=O)Cc1cccc2c(C(c3ccc(F)cc3)c3ccc(C(F)(F)F)cc3)c[nH]c12 (centres unmarked) [Example 113, 3-{(4-Fluorophenyl) [4-(trifluoromethyl)phenyl]methyl}-7-[(methylsulfonyl)methyl]-1H-indole]
220 | 10 | CS(=O)(=O)Cc1cccc2c(C(CCC#N)c3ccc(Cl)cc3F)c[nH]c12 (single isomer, unassigned) [Example 59-1, 4-(4-Chloro-2-fluorophenyl)-4-{7-[(methylsulfonyl)methyl]-1H-indol-3-yl}butanonitrile]
>200 | 10 | CS(=O)(=O)Cc1cc(F)cc2c(C(c3ccc(Cl)cc3F)C3CC3C#N)c[nH]c12 (single isomer, unassigned) [Example 273-1-2, 2-[(4-Chloro-2-fluorophenyl){5-fluoro-7-[(methylsulfonyl)methyl]-1H-indol-3-yl}methyl]cyclopropanecarbonitrile]
>500 | 6.57 | CS(=O)(=O)Cc1cccc2c(C(CCC#N)c3ccc4c(c3)OC(F)(F)O4)c[nH]c12 (centres unmarked) [Example 169, 4-(2,2-Difluoro-1,3-benzodioxol-5-yl)-4-{7-[(methylsulfonyl)methyl]-1H-indol-3-yl}butanonitrile]
>400 | 4.83 | CS(=O)(=O)Cc1cccc2c(C3(C4CC4)CCc4cc(F)ccc43)c[nH]c12 (centres unmarked) [Example 107, 3-(1-Cyclopropyl-5-fluoro-2,3-dihydro-1H-inden-1-yl)-7-[(methylsulfonyl)methyl]-1H-indole]
>500 | 6.44 | CS(=O)(=O)Cc1cccc2c(C(CCC#N)c3ccc4sccc4c3)c[nH]c12 (centres unmarked) [Example 73, 4-(1-Benzothiophen-5-yl)-4-{7-[(methylsulfonyl)methyl]-1H-indol-3-yl}butanonitrile]
120 | 16 | CCC(CCC#N)(c1ccc(Cl)cc1)c1c[nH]c2c(CS(C)(=O)=O)cccc12 (centres unmarked) [Example 172, 4-(4-Chlorophenyl)-4-{7-[(methylsulfonyl)methyl]-1H-indol-3-yl}hexanonitrile]
